# Experimental data published in patent US8440612B2, “Controlling giardiosis” (Bayer Intellectual Property GmbH, priority 2008, dated 2013).
# Values joined by “and” are separate entries in the source; they are usually repeats but may differ in a detail not shown here. Equal entries are not always repeated.
# Key:
# Giardia duodenalis [1] = test: Giardia cyst excretion in infected Beagle puppies, single oral dose (Biological Example 1); format: in vivo
# From the text: Beagle puppies aged 10-11 weeks which had 11 days to settle in the animal centre before being infected were infected orally with 50 000 Giardia duodenalis cysts. The cysts for the infection were obtained with the aid of a sucrose gradient from the faeces of dogs which excreted Giardia cysts and stored at 4 degrees centigrade in Bacto-Casitone medium for no longer than 2 weeks. From day 10 after the infection, the puppies were kept in individual cages in order to collect the daily total faeces for each individual. The quantitative determination of the cyst excretion was performed in the 4 days prior to treatment (day −3 to 0), and the puppies were divided randomly into two groups, taking into consideration the cyst excretion. […] The quantitative determination of the cyst excretion was continued from day 1 to day 8 after the treatment.
# Results: The activity was calculated using the following formula:
# (§1) Method: The quantitative determination of the cyst excretion was performed using a modified version of Hewlett (18): 4 g faeces were dissolved in 100 ml of water, sieved and allowed to sediment. The sediment was applied to a 1 M sucrose gradient (specific gravity 1.13), and the cysts, which were concentrated at the sucrose/water boundary layer after the centrifugation were pipetted off. After a wash step followed by centrifugation, the cysts in the pellet were counted. To this end, an aliquot of the pellet was counted under the microscope, and the number of cysts per g faeces was calculated.
# Giardia duodenalis [2] = test: Giardia cyst excretion in infected Beagle puppies, oral dose on three successive days (Biological Example 2); format: in vivo
# Description: as §1
# Beagle puppies aged 11-15 weeks which had at least 2 weeks to settle in the animal centre before being infected were infected orally with 50 000 Giardia duodenalis cysts before the beginning of the study. The cysts for the infection were obtained with the aid of a sucrose gradient from the faeces of dogs which excreted Giardia cysts and stored at 4 degrees centigrade in Bacto-Casitone medium for no longer than 2 weeks. 18 puppies which excreted Giardia cysts were included in the study and kept in individual cages in order to collect the daily total faeces. The quantitative determination of the cyst excretion was performed as an […], with the modification that the aliquot of the pellet was counted under the microscope with the aid of a Fuchs-Rosenthal hematocytometer. The quantitative determination of the cyst excretion was performed for 4 days before the treatment (day −3 to 0), and the puppies were divided randomly into three groups, taking into consideration the cyst excretion. […] The 6 dogs of the control group remained untreated. The quantitative determination of the cyst excretion was continued from day 1 to day 8 after the treatment.
structure (smiles),measurement,setting,value
CC1CS(=O)(=O)CCN1N=Cc1ccc([N+](=O)[O-])o1 (stereo not shown) [nifurtimox],Activity,"Giardia duodenalis [1]; calculated activity on cyst excretion versus infected untreated control, day 1 to 8, single oral dose 50 mg/kg, 50 mg/kg",90.4%
same,Σ Giardia cyst excretion D1,"Giardia duodenalis [1]; group line Σ (7 dogs), day 1 after treatment, 50 mg/kg oral on day D0",1516 cysts per g faeces
same,Σ Giardia cyst excretion D2,"Giardia duodenalis [1]; group line Σ (7 dogs), day 2 after treatment, 50 mg/kg oral on day D0",26 cysts per g faeces
same,Σ Giardia cyst excretion D3,"Giardia duodenalis [1]; group line Σ (7 dogs), day 3 after treatment, 50 mg/kg oral on day D0",32 cysts per g faeces
same,Σ Giardia cyst excretion D4,"Giardia duodenalis [1]; group line Σ (7 dogs), day 4 after treatment, 50 mg/kg oral on day D0",473 cysts per g faeces
same,Σ Giardia cyst excretion D5,"Giardia duodenalis [1]; group line Σ (7 dogs), day 5 after treatment, 50 mg/kg oral on day D0",629 cysts per g faeces
same,Σ Giardia cyst excretion D6,"Giardia duodenalis [1]; group line Σ (7 dogs), day 6 after treatment, 50 mg/kg oral on day D0",2523 cysts per g faeces
same,Σ Giardia cyst excretion D7,"Giardia duodenalis [1]; group line Σ (7 dogs), day 7 after treatment, 50 mg/kg oral on day D0",2403 cysts per g faeces
same,Σ Giardia cyst excretion D8,"Giardia duodenalis [1]; group line Σ (7 dogs), day 8 after treatment, 50 mg/kg oral on day D0",3127 cysts per g faeces
same,Σ Giardia cyst excretion D0,"Giardia duodenalis [1]; group line Σ (7 dogs), day of treatment, 50 mg/kg oral on day D0",8996 cysts per g faeces
same,Σ Giardia cyst excretion D−1,"Giardia duodenalis [1]; group line Σ (7 dogs), day −1, before treatment, 50 mg/kg oral on day D0",39966 cysts per g faeces
same,Σ Giardia cyst excretion D−2,"Giardia duodenalis [1]; group line Σ (7 dogs), day −2, before treatment, 50 mg/kg oral on day D0",38482 cysts per g faeces
same,Σ Giardia cyst excretion D−3,"Giardia duodenalis [1]; group line Σ (7 dogs), day −3, before treatment, 50 mg/kg oral on day D0",9762 cysts per g faeces
same,Σ Giardia cyst excretion Day 1 to 8,"Giardia duodenalis [1]; group, after treatment, 50 mg/kg oral once on day 0",1341 cysts per g faeces
same,Σ Giardia cyst excretion Day −3 to 0,"Giardia duodenalis [1]; group, before treatment, 50 mg/kg oral once on day 0",24302 cysts per g faeces
same,Giardia cyst excretion D1,"Giardia duodenalis [1]; individual dogs, day 1 after treatment, 50 mg/kg oral on day D0, 50 mg/kg",504 cysts per g faeces and 4928 cysts per g faeces and 152 cysts per g faeces and 0 cysts per g faeces (2×) and 2636 cysts per g faeces and 2391 cysts per g faeces
same,Giardia cyst excretion D2,"Giardia duodenalis [1]; individual dogs, day 2 after treatment, 50 mg/kg oral on day D0, 50 mg/kg",0 cysts per g faeces (6×) and 180 cysts per g faeces
same,Giardia cyst excretion D3,"Giardia duodenalis [1]; individual dogs, day 3 after treatment, 50 mg/kg oral on day D0, 50 mg/kg",0 cysts per g faeces (6×) and 224 cysts per g faeces
same,Giardia cyst excretion D4,"Giardia duodenalis [1]; individual dogs, day 4 after treatment, 50 mg/kg oral on day D0, 50 mg/kg",590 cysts per g faeces and 0 cysts per g faeces (2×) and 652 cysts per g faeces and 424 cysts per g faeces and 1451 cysts per g faeces and 193 cysts per g faeces
same,Giardia cyst excretion D5,"Giardia duodenalis [1]; individual dogs, day 5 after treatment, 50 mg/kg oral on day D0, 50 mg/kg",1700 cysts per g faeces and 1094 cysts per g faeces and 0 cysts per g faeces (2×) and 137 cysts per g faeces and 1318 cysts per g faeces and 153 cysts per g faeces
same,Giardia cyst excretion D6,"Giardia duodenalis [1]; individual dogs, day 6 after treatment, 50 mg/kg oral on day D0, 50 mg/kg",3693 cysts per g faeces and 2000 cysts per g faeces and 1201 cysts per g faeces and 353 cysts per g faeces and 0 cysts per g faeces and 4102 cysts per g faeces and 6315 cysts per g faeces
same,Giardia cyst excretion D7,"Giardia duodenalis [1]; individual dogs, day 7 after treatment, 50 mg/kg oral on day D0, 50 mg/kg",8881 cysts per g faeces and 431 cysts per g faeces and 1873 cysts per g faeces and 608 cysts per g faeces and 191 cysts per g faeces and 4615 cysts per g faeces and 223 cysts per g faeces
same,Giardia cyst excretion D8,"Giardia duodenalis [1]; individual dogs, day 8 after treatment, 50 mg/kg oral on day D0, 50 mg/kg",3294 cysts per g faeces and 517 cysts per g faeces and 14181 cysts per g faeces and 0 cysts per g faeces and 1621 cysts per g faeces and 1768 cysts per g faeces and 508 cysts per g faeces
same,Giardia cyst excretion D0,"Giardia duodenalis [1]; individual dogs, day of treatment, 50 mg/kg oral on day D0, 50 mg/kg",4397 cysts per g faeces and 8456 cysts per g faeces and 0 cysts per g faeces and 375 cysts per g faeces and 19681 cysts per g faeces and 16419 cysts per g faeces and 13644 cysts per g faeces
same,Giardia cyst excretion D−1,"Giardia duodenalis [1]; individual dogs, day −1, before treatment, 50 mg/kg oral on day D0, 50 mg/kg",1306 cysts per g faeces and 14238 cysts per g faeces and 2264 cysts per g faeces and 788 cysts per g faeces and 189275 cysts per g faeces and 45725 cysts per g faeces and 26163 cysts per g faeces
same,Giardia cyst excretion D−2,"Giardia duodenalis [1]; individual dogs, day −2, before treatment, 50 mg/kg oral on day D0, 50 mg/kg",907 cysts per g faeces and 923 cysts per g faeces and 5897 cysts per g faeces and 905 cysts per g faeces and 186750 cysts per g faeces and 45672 cysts per g faeces and 28322 cysts per g faeces
same,Activity,"Giardia duodenalis [2]; calculated activity on cyst excretion versus infected untreated control, day 3 to 8, 50 mg/kg oral on days 0, 1 and 2, 50 mg/kg",98.6%
same,Σ Giardia cyst excretion D0,"Giardia duodenalis [2]; group line Σ (6 dogs), D0, day of treatment, 50 mg/kg oral on days D0, D1 and D2",61098 cysts per g faeces
same,Σ Giardia cyst excretion D1,"Giardia duodenalis [2]; group line Σ (6 dogs), D1, day of treatment, 50 mg/kg oral on days D0, D1 and D2",872 cysts per g faeces
same,Σ Giardia cyst excretion D2,"Giardia duodenalis [2]; group line Σ (6 dogs), D2, day of treatment, 50 mg/kg oral on days D0, D1 and D2",211 cysts per g faeces
same,Σ Giardia cyst excretion D3,"Giardia duodenalis [2]; group line Σ (6 dogs), D3, after the treatment, 50 mg/kg oral on days D0, D1 and D2",0 cysts per g faeces
same,Σ Giardia cyst excretion D4,"Giardia duodenalis [2]; group line Σ (6 dogs), D4, after the treatment, 50 mg/kg oral on days D0, D1 and D2",135 cysts per g faeces
same,Σ Giardia cyst excretion D5,"Giardia duodenalis [2]; group line Σ (6 dogs), D5, after the treatment, 50 mg/kg oral on days D0, D1 and D2",638 cysts per g faeces
same,Σ Giardia cyst excretion D6,"Giardia duodenalis [2]; group line Σ (6 dogs), D6, after the treatment, 50 mg/kg oral on days D0, D1 and D2",339 cysts per g faeces
same,Σ Giardia cyst excretion D7,"Giardia duodenalis [2]; group line Σ (6 dogs), D7, after the treatment, 50 mg/kg oral on days D0, D1 and D2",54 cysts per g faeces
same,Σ Giardia cyst excretion D8,"Giardia duodenalis [2]; group line Σ (6 dogs), D8, after the treatment, 50 mg/kg oral on days D0, D1 and D2",399 cysts per g faeces
same,Σ Giardia cyst excretion D−1,"Giardia duodenalis [2]; group line Σ (6 dogs), day −1, before treatment, 50 mg/kg oral on days D0, D1 and D2",37547 cysts per g faeces
same,Σ Giardia cyst excretion D−2,"Giardia duodenalis [2]; group line Σ (6 dogs), day −2, before treatment, 50 mg/kg oral on days D0, D1 and D2",28220 cysts per g faeces
same,Σ Giardia cyst excretion D−3,"Giardia duodenalis [2]; group line Σ (6 dogs), day −3, before treatment, 50 mg/kg oral on days D0, D1 and D2",49751 cysts per g faeces
same,Σ Giardia cyst excretion Day 3 to 8,"Giardia duodenalis [2]; group, after treatment, 50 mg/kg oral on days 0, 1 and 2",261 cysts per g faeces
same,Σ Giardia cyst excretion Day: −3 to 0,"Giardia duodenalis [2]; group, before treatment, 50 mg/kg oral on days 0, 1 and 2",44154 cysts per g faeces
same,Giardia cyst excretion D0,"Giardia duodenalis [2]; individual dogs, D0, day of treatment, 50 mg/kg oral on days D0, D1 and D2, 50 mg/kg",60420 cysts per g faeces and 675 cysts per g faeces and 89880 cysts per g faeces and 86 cysts per g faeces and 103442 cysts per g faeces and 112084 cysts per g faeces
same,Giardia cyst excretion D1,"Giardia duodenalis [2]; individual dogs, D1, day of treatment, 50 mg/kg oral on days D0, D1 and D2, 50 mg/kg",809 cysts per g faeces and 187 cysts per g faeces and 974 cysts per g faeces and 0 cysts per g faeces and 1261 cysts per g faeces and 2000 cysts per g faeces
same,Giardia cyst excretion D2,"Giardia duodenalis [2]; individual dogs, D2, day of treatment, 50 mg/kg oral on days D0, D1 and D2, 50 mg/kg",741 cysts per g faeces and 0 cysts per g faeces (4×) and 527 cysts per g faeces
same,Giardia cyst excretion D3,"Giardia duodenalis [2]; individual dogs, D3, after the treatment, 50 mg/kg oral on days D0, D1 and D2",0 cysts per g faeces
same,Giardia cyst excretion D4,"Giardia duodenalis [2]; individual dogs, D4, after the treatment, 50 mg/kg oral on days D0, D1 and D2, 50 mg/kg",0 cysts per g faeces (4×) and 185 cysts per g faeces and 622 cysts per g faeces
same,Giardia cyst excretion D5,"Giardia duodenalis [2]; individual dogs, D5, after the treatment, 50 mg/kg oral on days D0, D1 and D2, 50 mg/kg",229 cysts per g faeces and 0 cysts per g faeces (3×) and 2299 cysts per g faeces and 1299 cysts per g faeces
same,Giardia cyst excretion D6,"Giardia duodenalis [2]; individual dogs, D6, after the treatment, 50 mg/kg oral on days D0, D1 and D2, 50 mg/kg",0 cysts per g faeces (3×) and 98 cysts per g faeces and 1842 cysts per g faeces and 93 cysts per g faeces
same,Giardia cyst excretion D7,"Giardia duodenalis [2]; individual dogs, D7, after the treatment, 50 mg/kg oral on days D0, D1 and D2, 50 mg/kg",0 cysts per g faeces (4×) and 87 cysts per g faeces and 237 cysts per g faeces
same,Giardia cyst excretion D8,"Giardia duodenalis [2]; individual dogs, D8, after the treatment, 50 mg/kg oral on days D0, D1 and D2, 50 mg/kg",517 cysts per g faeces and 0 cysts per g faeces (3×) and 975 cysts per g faeces and 903 cysts per g faeces
same,Giardia cyst excretion D−1,"Giardia duodenalis [2]; individual dogs, day −1, before treatment, 50 mg/kg oral on days D0, D1 and D2, 50 mg/kg",25515 cysts per g faeces and 3472 cysts per g faeces and 37203 cysts per g faeces and 8528 cysts per g faeces and 91293 cysts per g faeces and 59273 cysts per g faeces
same,Giardia cyst excretion D−2,"Giardia duodenalis [2]; individual dogs, day −2, before treatment, 50 mg/kg oral on days D0, D1 and D2, 50 mg/kg",10685 cysts per g faeces and 8278 cysts per g faeces and 1618 cysts per g faeces and 133 cysts per g faeces and 79689 cysts per g faeces and 68914 cysts per g faeces
